Results reported in article PMC10223062, “Discovery of Novel Thiophene/Hydrazones: In Vitro and In Silico Studies against Pancreatic Cancer” (Pharmaceutics, 2023).
Counter-ions that a name gives are not always drawn.

Legend:
MIA PaCa-2 cell line = test: 2D anticancer activity, MTT assay; assay type: cell-based; settings: Homo sapiens, 72 h exposure, read-out: IC50 in 2D cultured MIA PaCa-2 cell line
Procedure: (§1) For the preliminary assessment of anticancer activity in a 2D cell culture system, an MIA PaCa-2 human pancreas epithelial carcinoma (CRL-1420™) cell line (ATCC, Manassas, VA, USA) was cultured in Dulbecco’s Modified Eagle Medium with 10% fetal bovine serum (FBS, v/v) (Gibco, Billings, MT, USA) and supplemented with 1% antibiotics (10,000 μg/mL streptomycin and 10,000 U/mL penicillin) (Gibco, Billings, MT, USA) at 37 °C in a humidified 5% CO2 atmosphere. For the in vitro modeling of the tumor microenvironment, compounds were also tested in a 3D spheroid test system. For this purpose, the MIA PaCa-2 human pancreas epithelial carcinoma (CRL-1420™) cell line and human dermal fibroblast cell line HDF (PCS-201-012) cells were used.
For the assessment of anticancer activity of the compounds, the MIA PaCa-2 cells were plated in 48-well microplates at 1.5 × 10^5 cells/mL and incubated for 24 h at 37 °C in 5% CO2 in accordance with a previously reported method. Following the day, the cells were treated with compounds in various concentrations between 0.1–100 µM dissolved in dimethyl sulfoxide (DMSO) (Sigma Aldrich, St. Louis, MO, USA). Following the 72 h of incubation, culture mediums were discarded and 0.5 mg/mL 3-(4,5-Dimethylthiazol-2-yl)-2,5-Diphenyltetrazolium Bromide (MTT) (Sigma Aldrich, St. Louis, MO, USA) was added to each well for an additional 2 h at 37 °C. After 2 h incubation, the medium was discarded and 100 µL of isopropanol (Sigma Aldrich, St. Louis, MO, USA) was added to the wells to dissolve formazan crystals. The optical density was measured at 570 nm wavelength using a microplate reader (Thermo Fisher Scientific Multiskan, Finland). Doxorubicin hydrochloride (DOX) (European Pharmacopoeia standard, Sigma) was used as internal positive control, and 0.5% DMSO (v/v) was used as negative control. The percentage of cell viability was determined by using the following equation:(1) Viability %=(Absorbancecompound)/(Absorbancenegative control)×100%

[1] = test system: MIA PaCa-2 tumor spheroids; test: 3D spheroid formation/growth assay; assay type: cell-based, human; design: Spheroid Diameter Day 0 / Spheroid Diameter Day 9: unit not given here; settings: for Spheroid Diameter Day 0: Day 0 (baseline)
Procedure: as §1
For 3D spheroid formation, the MIA PaCa-2 cells (PC cell line) and HDF cells were used according to the 3D Bioprinting method. To better simulate the tumor microenvironment, PC cells were mixed (1:1) with human fibroblasts. Briefly, the MIA PaCa-2 cells and human fibroblasts at 70–80% confluency were added to a 6-well plate and incubated with biocompatible NanoShuttle TM-PL (Bioprinting Kit, Greiner Bio-One, Germany) overnight at 37 °C in a humidified 5% CO2 atmosphere. After the nanoparticles were taken up by the cells, they were resuspended and seeded into an ultra-low attachment 96-well plate at a volume of 100 μL (2000 PC cells and 2000 human fibroblasts per well) volume. The plate was placed on a magnetic drive and incubated at 37 °C in a humidified 5% CO2 atmosphere until spheroids were formed. After two days of incubation, the spheroids were photographed using light microscopy (Carl Zeiss Primo Vert, Germany). Fresh medium containing 0.1, 1, 10, and 100 µM of tested compound was added to the wells. Photos were taken every 72 h, and the medium was replaced every 72 h. The effect of the tested compounds in 3D PC cell cultures was examined by measuring the size change of spheroids using ImageJ software (ImageJ 2.0 software, USA).

5-LOX = target: T1, 5-LOX (Homo sapiens, UniProt P09917); test: Fluorometric 5-LOX inhibitor screening kit; assay type: biochemical; settings: for 5-LOX Percent of İnhibition: at 10 µM
T1 construct: purchased MyBioSource
T1 sequence (P09917 1-674): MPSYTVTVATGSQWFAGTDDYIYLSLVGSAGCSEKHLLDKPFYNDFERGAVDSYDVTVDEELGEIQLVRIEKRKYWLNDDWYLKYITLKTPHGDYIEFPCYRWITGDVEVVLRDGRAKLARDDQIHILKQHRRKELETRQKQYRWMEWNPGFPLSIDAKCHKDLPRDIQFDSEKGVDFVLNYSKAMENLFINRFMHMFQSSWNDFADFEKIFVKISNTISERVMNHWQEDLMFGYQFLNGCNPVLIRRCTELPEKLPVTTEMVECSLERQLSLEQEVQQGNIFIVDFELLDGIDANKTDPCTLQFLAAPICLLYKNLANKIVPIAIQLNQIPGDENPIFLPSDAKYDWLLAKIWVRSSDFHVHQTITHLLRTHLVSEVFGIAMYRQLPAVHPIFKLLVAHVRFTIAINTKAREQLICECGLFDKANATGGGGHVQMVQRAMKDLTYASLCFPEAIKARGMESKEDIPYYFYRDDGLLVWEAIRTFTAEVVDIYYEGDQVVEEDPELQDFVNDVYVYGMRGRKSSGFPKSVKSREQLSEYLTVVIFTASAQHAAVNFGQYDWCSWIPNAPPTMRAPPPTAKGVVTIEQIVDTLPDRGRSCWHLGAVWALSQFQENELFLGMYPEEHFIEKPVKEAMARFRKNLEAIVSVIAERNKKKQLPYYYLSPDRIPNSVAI
Procedure: COX-1 and COX-2 inhibitory activities were tested using fluorometric COX-1 and COX-2 inhibitor screening kits (Abcam, United Kingdom), and the 5-LOX inhibitory activity was tested using a fluorometric 5-LOX inhibitor screening kit (MyBioSource, USA). These assays are based on the fluorometric detection of Prostaglandin G2 (a product generated by the COX enzyme) or on the fluorometric detection of the intermediate generated by the 5-LOX enzyme. The experiments were conducted in accordance with the manufacturers’ instructions.
For the determination of 5-LOX inhibitory activity, tested compounds were dissolved in DMSO (5 mM stock solution) and then diluted with the same solvent to obtain the test solutions. Test solutions were added to wells in an amount of 2 µL in the final 100 µL reaction volume. […] EC, SC, IC, and all test solutions were analyzed in triplicate.

COX-2 = target: T2, COX-2 (Homo sapiens, UniProt P35354); test: Fluorometric COX-2 inhibitor screening kit; settings: at 10 µM
T2 sequence (P35354 18-604): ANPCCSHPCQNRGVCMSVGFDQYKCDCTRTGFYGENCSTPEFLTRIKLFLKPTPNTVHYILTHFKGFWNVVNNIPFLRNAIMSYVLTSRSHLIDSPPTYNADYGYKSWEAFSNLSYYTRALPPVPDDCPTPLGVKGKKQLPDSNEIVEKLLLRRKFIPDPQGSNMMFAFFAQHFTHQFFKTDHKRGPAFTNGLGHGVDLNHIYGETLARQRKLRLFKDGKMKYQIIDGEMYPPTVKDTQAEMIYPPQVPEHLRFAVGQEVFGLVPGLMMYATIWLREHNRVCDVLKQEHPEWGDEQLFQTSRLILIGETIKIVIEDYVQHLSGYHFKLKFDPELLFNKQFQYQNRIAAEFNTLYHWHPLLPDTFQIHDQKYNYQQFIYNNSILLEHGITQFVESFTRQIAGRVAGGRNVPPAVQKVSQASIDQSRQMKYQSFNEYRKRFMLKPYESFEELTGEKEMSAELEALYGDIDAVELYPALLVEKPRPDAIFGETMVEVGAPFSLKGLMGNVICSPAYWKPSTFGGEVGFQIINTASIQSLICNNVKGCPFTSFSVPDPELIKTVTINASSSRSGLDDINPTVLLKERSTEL
Procedure: For the determination of COX-1 and COX-2 inhibitory activity, the tested compounds were dissolved in dimethyl sulfoxide (DMSO, 5 mM stock solution) and then diluted with the same solvent to obtain the test solutions. The test solutions were further diluted 5× with COX Assay Buffer (2 µL of test solution: 8 µL COX Assay Buffer). […] Solvent Control (SC) was prepared by adding 2 µL DMSO and 8 µL COX Assay Buffer, while Sample (S) and Enzyme Control (EC) were prepared by adding 10 µL of diluted test solution and COX Assay Buffer, respectively, into assigned wells.

HaCaT cell line = test: Cell viability (cytotoxicity) in healthy cells, MTT assay; assay type: cell-based, human; settings: Homo sapiens, HaCaT; MTT, 72 h, healthy keratinocytes; read-out: IC50 in 2D cultured HaCaT cell line
Procedure: HaCaT human healthy keratinocyte cells (CRL-2404™) (ATCC, Manassas, VA, USA) were cultured in DMEM (10% FBS, v/v) (Gibco, Billings, MT, USA), respectively and supplemented with 1% antibiotics (10.000 μg/mL streptomycin and 10.000 units/mL penicillin) (Gibco, Billings, MT, USA) at 37 °C in a humidified atmosphere of 5% CO2. For the preliminary assessment of the cytotoxicity of selected potent compounds in healthy cells, HaCaT cells were seeded 2 × 10^5 cells/mL in 96-well plate and incubated for 24 h. The following day the 7a, 7d, and 7f compounds were applied similarly as in the MIA PaCa-2 cytotoxicity protocol between concentrations 0.62–100 µM for 72 h and then MTT was applied.

IC50 (MIA PaCa-2 cell line)	IC50 (5-LOX)	5-LOX Percent of İnhibition (5-LOX)	melting point	COX-2 Percent of İnhibition (COX-2)	Structure (SMILES)	Spheroid Diameter Day 0 ([1]; 0.1 µM group)	Spheroid Diameter Day 9 ([1]; 0.1 µM)	Spheroid Diameter Day 0 ([1]; 1 µM group)	Spheroid Diameter Day 9 ([1]; 1 µM)	Spheroid Diameter Day 0 ([1]; 10 µM group)	Spheroid Diameter Day 9 ([1]; 10 µM)	Spheroid Diameter Day 0 ([1]; 100 µM group)	Spheroid Diameter Day 9 ([1]; 100 µM)	Spheroid state at the end of the 9 days ([1]; 10–100 µM)	Spheroid state at the end of the 9 days ([1]; 100 µM)	IC50 (HaCaT cell line)	Reduction in spheroid size ([1]; 10 µM, after 9 days of treatment)
24.2 ± 3.76 µM		20.38 ± 1.98%	253 °C	11.41 ± 3.40%	COc1ccc(/C=N/NC(=O)c2cc(-c3ccccc3)c(-c3ccccc3)s2)cc1OC [7g, N’-[(E)-(3,4-dimethoxyphenyl)methylidene]-4,5-diphenylthiophene-2-carbohydrazide]	1222.5 ± 28.73	5969.0 ± 59.6	985.5 ± 65.7	3318.0 ± 35.4					disintegrated			
> 100 µM		27.23 ± 0.64%	254 °C	13.27 ± 0.73%	COc1cc(/C=N/NC(=O)c2cc(-c3ccccc3)c(-c3ccccc3)s2)cc(OC)c1OC [7i, N’-[(E)-(3,4,5-trimethoxyphenyl)methylidene]-4,5-diphenylthiophene-2-carbohydrazide]	1135.5 ± 2.5	5523.0 ± 15.2	943.0 ± 12.1	3539.0 ± 25.4		2764.0 ± 37.9	1023.0 ± 59.5	2776.5 ± 85.2				
0.35 ± 0.18 µM					COc1cccc2c1C(=O)c1c(O)c3c(c(O)c1C2=O)C[C@@](O)(C(=O)CO)C[C@@H]3O[C@H]1C[C@H](N)[C@H](O)[C@H](C)O1 [DOX, Doxorubicin hydrochloride, reference compound]											110 ± 80 nM	24%

Second part, the molecule before the results:

Structure (SMILES)	IC50 (MIA PaCa-2 cell line)	IC50 (5-LOX)	5-LOX Percent of İnhibition (5-LOX)	melting point	COX-2 Percent of İnhibition (COX-2)	Spheroid Diameter Day 0 ([1]; 0.1 µM group)	Spheroid Diameter Day 9 ([1]; 0.1 µM)	Spheroid Diameter Day 0 ([1]; 1 µM group)	Spheroid Diameter Day 9 ([1]; 1 µM)	Spheroid Diameter Day 0 ([1]; 10 µM group)	Spheroid Diameter Day 9 ([1]; 10 µM)	Spheroid Diameter Day 0 ([1]; 100 µM group)	Spheroid Diameter Day 9 ([1]; 100 µM)	Spheroid state at the end of the 9 days ([1]; 10–100 µM)	Spheroid state at the end of the 9 days ([1]; 100 µM)	IC50 (HaCaT cell line)	Reduction in spheroid size ([1]; 10 µM, after 9 days of treatment)
O=C(N/N=C/c1cccc(O)c1)c1cc(-c2ccccc2)c(-c2ccccc2)s1 [7b, N’-[(E)-(3-hydroxyphenyl)methylidene]-4,5-diphenylthiophene-2-carbohydrazide]	9.09 ± 1.11 µM	93.2 ± 9.89 µM	25.77 ± 2.54%	225 °C	24.13 ± 1.55%	1193.0 ± 13.1	5922.5 ± 39.8	1185.5 ± 82.7	6461.5 ± 59.6	969.3 ± 28.9	4192.0 ± 44.8	644.7 ± 26.9	1050.5 ± 18.9				
COc1ccc(/C=N/NC(=O)c2cc(-c3ccccc3)c(-c3ccccc3)s2)c(OC)c1OC [7h, N’-[(E)-(2,3,4-trimethoxyphenyl)methylidene]-4,5-diphenylthiophene-2-carbohydrazide]	> 100 µM		19.87 ± 1.62%	245 °C	8.35 ± 0.93%	1125.5 ± 28.9	5215 ± 18.3	1220.5 ± 31.5	6682.5 ± 7.1	1192.0 ± 24.7	8165.5 ±18.1	942.0 ± 58.9	7936.5 ± 48.6				
O=C(N/N=C/c1ccc2c(c1)OCO2)c1cc(-c2ccccc2)c(-c2ccccc2)s1 [7j, N’-[(E)-(2H-1,3-benzodioxol-5-yl)methylidene]-4,5-diphenylthiophene-2-carbohydrazide]	9.65 ± 0.22 µM		36.10 ± 3.92%	262 °C	16.64 ± 1.11%	1112.0 ± 35.4	6291.5 ± 45.87	998.0 ± 11.5	5934.0 ± 96.3	1068.0 ± 68.1	5217.4 ± 25.7				disintegrated		
CC(c1cc2ccccc2s1)N(O)C(N)=O (stereo not drawn) [Zileuton, reference compound]			64.85 ± 0.39%														
